Laboratory results reported in patent publication US5574023A, “Intramolecularly crosslinked (1→3)-β-D-glucans” (Seikagaku Kogyo Kabushiki Kaisha (Seikagaku Corporation), priority 1991, dated 1996).

Columns and labels:
[1] = Single helix conformation content by high-resolution 13C-NMR of hydrated solid sample; assay type: physicochemical; conditions: for Single helix conformation % retention after one month: aqueous solution or suspension stored aseptically at 4° C. for 1 month, versus initial value; for Single helix conformation content in hydrated solid sample: immediately after synthesis, 13C-NMR
Method: Each sample was deprived of water by lyophilization and then maintained in saturated water vapor, and the hydrated solid sample obtained was subjected to high-resolution ^13 C-NMR spectrometry. The single helix conformation content in the (1→3)-β-D-glucan in the sample was calculated by comparing the chemical shift peak heights for each carbon atom with the peak heights of the chemical shifts shown in Table 1 for other higher-order structure carbon atoms.
The single helix conformation contents thus obtained from the chemical shifts of C-2, C-3 and C-5 and the respective peak heights are shown in Table 2.
Furthermore, aqueous solutions or suspensions were stored in aseptic condition at 4° C. for 1 month and then tested for single helix conformation content in the same manner. The data obtained were compared with the initial values and the rates of retention of the respective single helix conformations contained were calculated. The uncrosslinked, single helix conformation schizophyllan, when subjected to solid-phase ^13 C-NMR spectrometry immediately after formation of said conformation, gave a single helix conformation content of 60% but, after one-month storage, the content of said structure was only 6% (10% retention). This is due to advanced transformation from the single helix conformation to other higher-order structures.

[2] = tested on: Horseshoe crab lysate factor G; assay: Factor G activating ability (pNA release from Boc-Leu-Gly-Arg-pNA); assay type: biochemical; conditions: for % Retention of factor G activating ability after one month: aqueous solution or suspension stored one month at 4° C., versus initial value
Method: For each sample to be tested, a reaction mixture (200 μl) containing the sample, water and the ingredients mentioned below was prepared. […]
This reaction mixture was incubated at 37° C. for 30 minutes and, then, p-nitroaniline (pNA) liberated was quantitated. Thus, to the sample after incubation were added 0.5 ml each of 0.04% sodium nitrite (solution in 0.48M hydrochloric acid), 0.3% ammonium sulfamate and 0.07% N-1-naphthylethylenediamine dihydrichloride in that order for causing a change in color tone due to diazo coupling, and the absorbance at 545 nm (A545) was determined.
This measurement was performed for an aqueous solution or suspension of each substance immediately after synthesis thereof. The same measurement was also performed after one month storage of the sample at 4° C., the minimum concentration (C, g/ml) at which the absorbance at 545 nm amounted to 0.1 was determined, and the factor G activating ability was expressed in terms of -log C (g/ml) value. By comparing this value with the initial value, the rate of retention of factor G activating ability was calculated.

Sarcoma 180 cells = assay: Tumor inhibition rate, Sarcoma 180 transplanted subcutaneously in mice; assay type: in vivo, CLJ-ICR female mice; conditions: intraperitoneal, 10 times (days 1-5 and 7-11), tumor weight on day 13 versus untreated control; for % Tumor inhibition, after one month: sample administered after one month storage at 4° C.; for % Tumor inhibition, initial: sample administered immediately after preparation
Method: Sarcoma 180 cells (5×10^6 cells) were transplanted subcutaneously into the groin of each of 6-week-old CLJ-ICR female mice weighing about 25 g. The intramolecularly crosslinked, single helix conformation (1→3)-β-D-glucans of the invention as obtained in Examples 1-10 and the uncrosslinked, single helix conformation schizophyllan of Comparative Example were respectively administered to the mice at 24 hours after transplantation (day 1) and thereafter once daily on days 1-5 and 7-11 (10 times in total). Thus, each sample was comminuted in a mortar, suspended or dissolved in physiological saline for injection, sterilized in an autoclave at 121° C. for 20 minutes, and then intraperitoneally administered. In a control group, no glucan was given to mice.
On day 13, tumor nodules were excised and weighed, and their weights were compared with the tumor weight in the untreated control group for calculating tumor inhibition rates.
In the above test, sample solutions or suspensions were administered immediately after preparation on one hand and, on the other, the solutions or suspensions were administered after one month storage at 4° C.

For “2,3,4-Trihydroxyadipodialdehyde-crosslinked hydrazinocurdlan [Example 3]”, the “Single helix conformation % retention after one month” value (“Single helix conformation % retention” below) [1] was 80%, the “Single helix conformation content in hydrated solid sample” value (from here on “Single helix conformation content”) [1] was 70% and the “% Retention of factor G activating ability after one month” value [2] was 20%. The “% Tumor inhibition, after one month” value (Sarcoma 180 cells) was 92.1% and the “% Tumor inhibition, initial” value (Sarcoma 180 cells) was 100%.
For “2,3,4-Trihydroxyadipodihydrazide-crosslinked aldehyde schizophyllan [Example 6]”, the “Single helix conformation % retention” value [1] was 90%, the “Single helix conformation content” value [1] was 70% and the “% Retention of factor G activating ability after one month” value [2] was 30%. The “% Tumor inhibition, after one month” value (Sarcoma 180 cells) was 96.1% and the “% Tumor inhibition, initial” value (Sarcoma 180 cells) was 100%.
For “Dodecamethylenediamine-crosslinked aldehyde schizophyllan [Example 4]”, the “Single helix conformation % retention” value [1] was 100%, the “Single helix conformation content” value [1] was 75% and the “% Retention of factor G activating ability after one month” value [2] was 100%. For the same substance, the “% Tumor inhibition, after one month” value (Sarcoma 180 cells) was 98.4% and the “% Tumor inhibition, initial” value (Sarcoma 180 cells) was 100%.
With “Glutardialdehyde-crosslinked hydrazino yeast glucan [Example 9]” the “Single helix conformation % retention” value [1] was 53%, the “Single helix conformation content” value [1] was 23% and the “% Retention of factor G activating ability after one month” value [2] was 20%. The “% Tumor inhibition, after one month” value (Sarcoma 180 cells) was 73.0% and the “% Tumor inhibition, initial” value (Sarcoma 180 cells) was 90.0%.
With “Glutardialdehyde-crosslinked hydrazinocurdlan (no receptor added) [Example 1]” the “Single helix conformation % retention” value [1] was 60%, the “Single helix conformation content” value [1] was 70% and the “% Retention of factor G activating ability after one month” value [2] was 10%. For the same substance, the “Initial factor G activating ability, -log C (minimum concentration at which A545 amounted to 0.1)” value ([2]; immediately after synthesis, 37° C., 30 minutes) was 11 -log C (g/ml), the “% Tumor inhibition, after one month” value (Sarcoma 180 cells) was 70.0% and the “% Tumor inhibition, initial” value (Sarcoma 180 cells) was 98.0%.
With “Glutardialdehyde-crosslinked hydrazinocurdlan [Example 2]” the “Single helix conformation % retention” value [1] was 70%, the “Single helix conformation content” value [1] was 65% and the “% Retention of factor G activating ability after one month” value [2] was 20%. For the same substance, the “% Tumor inhibition, after one month” value (Sarcoma 180 cells) was 91.1% and the “% Tumor inhibition, initial” value (Sarcoma 180 cells) was 98.2%.
For “Glutardialdehyde-crosslinked hydrazinolentinan [Example 10]”, the “Single helix conformation % retention” value [1] was 52%, the “Single helix conformation content” value [1] was 35% and the “% Retention of factor G activating ability after one month” value [2] was 20%. The “% Tumor inhibition, after one month” value (Sarcoma 180 cells) was 80.0% and the “% Tumor inhibition, initial” value (Sarcoma 180 cells) was 96.0%.
With “Glutardialdehyde-crosslinked hydrazinoschizophyllan [Example 7]” the “Single helix conformation % retention” value [1] was 80%, the “Single helix conformation content” value [1] was 70% and the “% Retention of factor G activating ability after one month” value [2] was 25%. For the same substance, the “% Tumor inhibition, after one month” value (Sarcoma 180 cells) was 95.0% and the “% Tumor inhibition, initial” value (Sarcoma 180 cells) was 100%.
With “Hexamethylenedihydrazine-crosslinked carboxymethylated curdlan [Example 8]” the “Single helix conformation % retention” value [1] was 70%, the “Single helix conformation content” value [1] was 60% and the “% Retention of factor G activating ability after one month” value [2] was 10%. For the same substance, the “% Tumor inhibition, after one month” value (Sarcoma 180 cells) was 75.3% and the “% Tumor inhibition, initial” value (Sarcoma 180 cells) was 98.2%.
With “Pimelic acid-crosslinked hydrazinoschizophyllan [Example 5]” the “Single helix conformation % retention” value [1] was 60%, the “Single helix conformation content” value [1] was 55% and the “% Retention of factor G activating ability after one month” value [2] was 10%. The “% Tumor inhibition, after one month” value (Sarcoma 180 cells) was 65.6% and the “% Tumor inhibition, initial” value (Sarcoma 180 cells) was 95.3%.
